Reference: US20190062697A1, “Cell Differentiation Marker and its Uses” (Centre National De La Recherche Scientifique (CNRS), priority 2013, published 2019)

Assays:
[1] = system: CDK2^Y15P; experiment: Western blot of inhibitory CDK2 Tyr15 phosphorylation upon DNA damage in G1; format: cell-based, mouse; conditions: 24 hours knockdown, UV light in G1
Description: FIG. 4E is a western blot showing the downregulation of Cdc25A expression by RNAi resulting in increased inhibitory CDK2Tyr15 phosphorylation upon DNA damage in G1. Control (a.) and Cdc25A (b.) RNAi-transfected cells were released from nocodazole and exposed (+) to UV-light in G1. Samples were collected at the indicated times and analyzed by western blotting with the indicated antibodies: Cdc25A (#1), Cdk2^Y15P (#2), Cyclin B1 (#3), Chk1^S345P (#4), Chk1 (#5) and β-actin (#6; as control).
Western blot signals of FIG. 4E were quantified by densitometry scanning and expressed as relative optical density (ROD) compared to Chk1 signal as loading control. Black bars represent cells treated with Cdc25A RNAi (a.) and white bars represent cells treated with control RNAi (b.).
Cells were rinsed once in PBS and then incubated with ice cold lysis buffer (50 mM Tris-HCl pH 7.4, 100 mM NaCl, 50 mM NaF, 5 mM EDTA, 40 mM β-glycero-phosphate, 1% Triton X-100 and protease inhibitors) for 30 min on ice before scraping. Whole cell extracts were clarified by centrifugation at 12000 rcf for 10 min at 4° C. Protein concentration of the clarified lysates was estimated using BCA method (Pierce). Equal amount of protein was used for western blot analysis. All antibodies were incubated overnight at 4° C. in phosphate-buffered saline (PBS) containing 1% BSA and 0.1% Tween (Sigma). […]

[2] = system: ES cells; experiment: Clonogenic assay of ES cells with alkaline phosphatase (AP) staining; format: cell-based, mouse; conditions: prolonged (7 days) RNAi knockdown, in the presence of LIF
Experimental: FIG. 12M is a histogram showing a clonogenic assay of ES cells upon prolonged control (1), Dub3 (2) or Cdc25a (3) targeting RNAi sequence. Cells were plated at clonal density in LIF-containing serum and stained for AP after 7 days. Columns show the percentage of alkaline phosphatase (AP) positive (dark grey) or negative (light grey) colonies. At least 150 colonies were scored.

[3] = system: ES cells; experiment: BrdU pulse-labelling / FACS of synchronized ES cells UV-irradiated in G1 (S-phase entry); format: cell-based, mouse; conditions: 24 hours knockdown, UV light in G1, collected 2 hours after UV
Experimental: FIG. 4F is a histogram showing Cdc25A downregulation in G1 delay upon DNA damage. Control (a.) and Cdc25A (b.) RNAi-transfected cells were released from nocodazole and exposed to UV light in G1 (t=2) and collected 2 hours (t=4) after UV-(+) or mock-irradiation (−). Prior to collection cells were pulse-labelled with BrdU. Fraction (expressed as %) of diploid BrdU negative cells is plotted (data are represented as mean±SD). Statistical differences is indicated with a single asterisk (*) for P<0.05. Y-axis represents the percentage of cells in G1.
ES cells were arrested in prometaphase by nocodazole (Sigma) for 4-8 hours. After mitotic-shake off cells were washed 3 times in ice-cold PBS and dissolved in full ES growth medium. Cells were incubated in a humidified atmosphere of 5% CO2 at 37° C. for 45 minutes and placed at 30° C. for 1 hour to reduce S phase entry. Cells were mock- or UV-irradiated (6 J/m2) and incubated at 37° C. prior collection. To synchronise NIH-3t3 cells in G0 cells were grown to confluence and incubated for 2-3 days. Next, cells were washed, resuspended and split at 30% confluency. […]
Single-cell suspensions were prepared by trypsinisation and washed once in PBS. […] The BrdU content was determined by reaction with a fluorescein isothiocyanate (FITC)-conjugated anti-BrdU antibody (BD Biosciences). Cells were analyzed with a FACScalibur flow cytometer using CellQuestPro software.

[4] = system: Cdc25A; experiment: Western blot analysis of Cdc25A protein levels in ES cells; format: cell-based, mouse
Experimental: Cells were UV-irradiated and incubated with cycloheximide (Cx) in absence or presence of Chk1 inhibitor SB218078, collected at the indicated times (min) and analyzed by western blotting. Cdc25A expression (#1) and β-actin (#2; as control) are shown.
FIG. 6J is a western blot analysis of Cdc25A protein expression in Luciferase (a.), β-TrCP (b.) and Cdh1 (c.) RNAi-transfected cells. Expression of Cdc25A (#1) and β-actin (#2) is shown.
Expression of CDC25A (#1), Cdc25C (#2) and β-actin (#3, as control) is represented.
FIG. 9B is a western blot analysis of Cdc25A protein levels in ES cells treated with increasing concentrations (in μM) of the DY131 agonist for 16 hours. Cdc25A (#1) and β-actin (#2, as control) protein expression is represented.
Cells were rinsed once in PBS and then incubated with ice cold lysis buffer (50 mM Tris-HCl pH 7.4, 100 mM NaCl, 50 mM NaF, 5 mM EDTA, 40 mM β-glycero-phosphate, 1% Triton X-100 and protease inhibitors) for 30 min on ice before scraping. Whole cell extracts were clarified by centrifugation at 12000 rcf for 10 min at 4° C. Protein concentration of the clarified lysates was estimated using BCA method (Pierce). Equal amount of protein was used for western blot analysis. All antibodies were incubated overnight at 4° C. in phosphate-buffered saline (PBS) containing 1% BSA and 0.1% Tween (Sigma). Antibodies used from Cell Signaling: Chk1S345P (2341), p53S15P (9284), γH2AX (2577), CDK2Y15P (9111), Myc-Tag (2276); Active caspase 3 (9961); Abcam: DNA polα (ab31777), H3 (ab1791), CDK2 (ab6538), PSTAIR (ab10345), GFP (ab290), MCM2 (ab4461); Suds3 (ab3740) Santa Cruz: Cdc45 (sc-20685), Cdc25A (sc-7389), Chk1 (sc-8408), Cyclin B1 (sc-245), Cdc25C (sc-327), Cdc25B (sc-65504), p21 (sc-6246), RhoA (sc-418); anti-goat IgG-HRP (sc-2020) Sigma: (PC10), β-actin (A1978), Cyclin A (C7410), Anti-Flag M2 (F1804), Oct4 (Chemicon, AB3209), and Millipore, Nestin (Ab353), H3S10P (Millipore 09-797). Wee1 (kindly provided by T. Lorca, CRBM Montpellier).

[5] = system: Cdc25A mRNA; experiment: qPCR quantification of Cdc25A mRNA in ES cells; format: cell-based, mouse
Experimental: FIG. 6I is a histogram showing qPCR quantification of Cdc25A normalised to multiple reference genes expressed as percentage of control. ES cells were transfected with control (Luc), β-TrCP (1), Cdh1 (2) or Dub3 (3) RNAi sequences and collected 48 hours after transfection. Bars represent the mean±SD of triplicate observations.
FIG. 7C is a histogram showing the qPCR quantification of Cdc25A mRNA normalised to multiple reference genes. ES cells were transfected with control (1), Dub3 (2) or Cdc25A (3) RNAi sequences.
(§1) FIG. 9A is a graph showing qPCR quantification of Cdc25A (curves with black squares) and Dub3 (curves with triangles) mRNA in ES cells treated with increasing concentration of the selective Esrrb and Esrrg agonist DY131 (indicated doses in μM) for 16 hours. Bars represent the fold induction±SD of triplicate observations.
(§2) Briefly, ES cells were maintained in Glasgow MEM BHK-21 (GMEM) supplemented with 10% fetal bovine serum, non-essential amino acids, L-glutamine, sodium pyruvate, β-mercapthethanol. NIH-3t3 cells were maintained in Dulbecco's modified eagle's medium (DMEM) supplemented with 10% fetal bovine serum, 2 mM glutamine and antibiotics. […]
(§3) Total RNA was isolated with TRIzol reagent (Invitrogen). […] Quantitative PCRs were performed using Lightcycler SYBR Green I Master mix (Roche) on Lightcycler apparatus (Roche). […]

[6] = system: Dub3 mRNA; experiment: qPCR quantification of Dub3 mRNA in ES cells; format: cell-based, mouse; conditions: increasing dose of DY131, 16 hours
Experimental: as §1
FIG. 9C is a histogram showing qPCR quantification of Esrrb (1) and Dub3 (2) mRNA normalised to multiple reference genes expressed as percentage of control in presence of DY131. ES cells were transfected with control (Crtl) RNAi (white bars) or Esrrb specific RNAi sequence (black bars). Data are expressed as mean±SD (error bars) of multiple observations.
as §2, with “antibiotics. The viruses-containing conditioned medium was incubated on exponentially growing NIH-3t3 cells for 24 hours in the presence of polybrene ([…]).” for “antibiotics.”
as §3

[7] = system: deubiquitylating enzymes (DUBs); conditions: cited from earlier work
[8] = system: ES cells; experiment: FACS cell cycle analysis of asynchronously growing ES cells treated with roscovitine; format: cell-based, mouse; conditions: increasing concentration of roscovitine
Experimental: FIG. 5C is FACS analysis of asynchronously growing ES cells treated with increasing concentration of Roscovitine (in μM; Z-axis). Roscovitine is a potent and selective inhibitor of cyclin-dependent kinases, […]. X-axis represents DNA content (expressed in propidium iodide fluorescence) and Y-axis represents the number of cells.
Single-cell suspensions were prepared by trypsinisation and washed once in PBS. Cells were fixed in ice-cold 70% ethanol (−20° C.) and stored at −20° C. overnight. Following RNAse A treatment, total DNA was stained with propidium iodide (25 μg/ml). For BrdU uptake analysis, ES cells and NIH-3t3 cells were grown in the presence of 10 μM BrdU for respectively 10 and 30 minutes. The BrdU content was determined by reaction with a fluorescein isothiocyanate (FITC)-conjugated anti-BrdU antibody (BD Biosciences). Cells were analyzed with a FACScalibur flow cytometer using CellQuestPro software.

[9] = RNAi-mediated knockdown in ES cells
[10] = increasing dose of DY131, 16 hours, ES cells

5′-GAAAUUUCCCUGACGAGAA-3′ (listed as RNA, chemistry not given here) [Cdc25A RNAi]
CDK2^Y15P levels [1]: increased CDK2^Y15P levels | alkaline phosphatase (AP)-negative colonies [2]: A very similar result was also observed | BrdU-negative cells with 2N DNA content [3]: significant, UV-dependent, increase of BrdU-negative cells with 2N DNA content

5′-GGCUGUAAGAUGUGUGCUA-3′ (listed as RNA, chemistry not given here) [Dub3 RNAi]
alkaline phosphatase (AP)-negative colonies [2]: increase of alkaline phosphatase (AP)-negative colonies | reduction of Cdc25A protein abundance [4, 9]: 3 fold | Cdc25A mRNA level [5, 9]: did not affect Cdc25A mRNA level

CCN(CC)c1ccc(/C=N/NC(=O)c2ccc(O)cc2)cc1 [DY131]
Dub3 gene expression [6]: boosted Dub3 gene expression | Cdc25A protein abundance [4, 10]: increased Cdc25A protein abundance | Cdc25A transcript level [5, 10]: without affecting Cdc25A transcript level

N#CSc1cc(SC#N)c(N)nc1N [PR-619]
accumulation of polyubiquitylated proteins in cells [7]: induces the accumulation of polyubiquitylated proteins in cells | proteasome activity [7]: without directly affecting proteasome activity

O=C1NC(=O)c2c1c1c3ccccc3n3c1c1c2c2ccccc2n1C1CCC3O1 [SB218078]
Cdc25A destruction upon DNA damage ([4]; UV-irradiated ES cells with cycloheximide, absence or presence of Chk1 inhibitor): rapid Cdc25A destruction upon DNA damage is Chk1-dependent

CC[C@H](CO)Nc1nc(NCc2ccccc2)c2ncn(C(C)C)c2n1 [roscovitine]
G1 cells [8]: dose-dependent increase of G1 cells | fraction of S phase cells [8]: reduced the fraction of S phase cells
